Assay results as given in patent US10519159B2, “Antiviral aliphatic ester prodrugs of tenofovir” (Merck Sharp & Dohme Corp., priority 2016, dated 2019).
Like-named read-outs stand apart in the source and are kept apart here.

Assays:
HIV-1 (H9/IIIB strain) = test: Multiple round HIV-1 infection assay (Viking assay) in MT4-GFP cells; assay type: cell-based
Description: Assessing Antiviral Potency in a Multiple Round HIV-1 Infection Assay (Viking Assay)
The antiviral activity of the tenofovir prodrugs of the Examples herein was assessed in an assay that measures the rate of replication of HIV in cell culture, termed the Viking assay (Viral KINetics in Green cells) and performed as follows. HIV-1 replication was monitored using MT4-gag-GFP clone D3 (hereafter designated MT4-GFP), which are MT-4 cells modified to harbor a GFP reporter gene, the expression of which is dependent on the HIV-1 expressed proteins tat and rev. Productive infection of an MT4-GFP cell with HIV-1 results in GFP expression approximately 24 h post-infection. MT4-GFP cells were maintained at 37° C./5% CO2/90% relative humidity in RPMI 1640 supplemented with 10% fetal bovine serum, 100 U/ml penicillin/streptomycin, and 400 μg/ml G418 to maintain the reporter gene. For infections, MT4-GFP cells were placed in the same medium lacking G418 and infected overnight with HIV-1 (H9/IIIB strain) virus at an approximate multiplicity of infection of 0.01 in the same incubation conditions. Cells were then washed and re-suspended in either RPMI 1640 supplemented with 10% or 50% normal human serum (NHS) at 1.6×10^5 cells/mL (10% NHS or 50% NHS, respectively). Compound plates were prepared by dispensing compounds dissolved in DMSO into wells of 384 well poly-D-lysine-coated plates (0.2 μl/well) using an ECHO acoustic dispenser. Each compound was tested in a 10-point serial 3-fold dilution (typical final concentrations: 8.4 μM-0.42 nM). Controls included no inhibitor (DMSO only) and a combination of three antiviral agents (efavirenz, indinavir, an in-house integrase strand transfer inhibitor at final concentrations of 4 μM each). Cells were added (50 μL/well) to compound plates and the infected cells were maintained at 37° C./5% CO2/90% relative humidity.
Infected cells were quantified at two time points, ˜48 h and ˜72 h post-infection, by counting the number of green cells in each well using an Acumen eX3 scanner. The increase in the number of green cells over ˜24 h period gives the reproductive ratio, R0, which is typically 5-15 and has been shown experimentally to be in logarithmic phase (data not shown). Inhibition of R0 is calculated for each well, and IC50s determined by non-linear 4-parameter curve fitting.

[1] = Prodrug stability assay in bio-relevant media (FaSSIF with pancreatin), GI tract stability; assay type: in vitro ADME
Description: Prodrug Stability Assay in Bio-Relevant Media
The following assay was employed to evaluate the stability of the prodrugs in simulated gastrointestinal tract conditions. Preparation of fasted state simulated intestinal fluid (FaSSIF) using Phares SIF Powder was carried out according to protocols from Phare Drug Delivery AG (Baselland, Switzerland). For sample preparation, 10 μL stock solutions (10 mM) of prodrug substance in DMSO was added to 990 μL of 0.5 mg/mL Pancreatin solution (Fisher CAS #8049-47-6) in FaSSIF. Two samples were prepared for each compound. If the sample was a clear solution, it was directly analyzed by HPLC. If the sample was not clear, the sample was […], maintained at 37° C. and observed 5 h later. If the sample was clear, HPLC analysis was directly performed. If the sample was still not clear, the sample was diluted with 100% ACN and assayed by HPLC. All the samples were vortexed for 3 min and observed before injection. For the diluted samples, the area is multiplied by a dilution factor when the data is analyzed. The analysis was carried out with an Agilent 1100 series HPLC with autosampler. The column was a Poroshell 120 EC-C18, 4.6×50 mm, 2.7 μm. The flow rate was 1.8 mL/min, and the injection volume was 5 or 10 μL. UV detection was in the range 210-400 nm. The mobile phase consisted of solvent A (water plus 10 mM tetrabutylammonium bromide) and solvent B (acetonitrile) with a gradient of: 90% solvent A at 0 min, changing to 95% solvent B over 6 min, maintaining for 1.5 min, then reverting to 90% solvent A over 1.6 min. The HPLC peak area of the prodrug at 5 h was divided by the HPLC peak area of the prodrug at 0 h, to generate the % claimed parent ratio, which is summarized in Table 1 for gastrointestinal (GI) Tract stability.

[2] = Table 1, MT4-GFP cells infected with HIV-1 H9/IIIB, 10% normal human serum, read-out: Viking, IC50 (10% NHS)
[3] = Table 1, MT4-GFP cells infected with HIV-1 H9/IIIB, 50% normal human serum, read-out: Viking, IC50 (50% NHS)
[4] = Human immunodeficiency virus 1, IIIB, Table 2, L-Ala comparison compounds, MT4-GFP cells, HIV-1 H9/IIIB, 10% normal human serum, read-out: Viking, IC50 (10% NHS)
[5] = Human immunodeficiency virus 1, IIIB, Table 2, L-Ala comparison compounds, MT4-GFP cells, HIV-1 H9/IIIB, 50% normal human serum, read-out: Viking, IC50 (50% NHS)
[6] = Table 2, L-Ala comparison compounds, % parent at 5 h vs 0 h, pancreatin in FaSSIF
[7] = Table 1, % parent: HPLC peak area of prodrug at 5 h / 0 h, 0.5 mg/mL pancreatin in FaSSIF, 37° C.

| SMILES | IC50 (HIV-1 (H9/IIIB strain); [2]) | IC50 (HIV-1 (H9/IIIB strain); [3]) | further results |
| --- | --- | --- | --- |
| CC(C)OC(=O)C(C)(C)COP(=O)(CO[C@H](C)Cn1cnc2c(N)ncnc21)NC(C)(C)C(=O)OC(C)C (single isomer, unassigned) [Example 9A] | 173 nM | 562 nM | – |
| CCCOC(=O)[C@H](C)NP(=O)(CO[C@H](C)Cn1cnc2c(N)ncnc21)OCCC(=O)OC(C)C (single isomer, unassigned) [Compound 15A, reference compound] | – | – | IC50 (HIV-1 (H9/IIIB strain); [4]): 101 nM; IC50 (HIV-1 (H9/IIIB strain); [5]): 1220 nM; GI Tract stability [1, 6]: 60.1% |
| CCCOC(=O)[C@H](C)NP(=O)(CO[C@H](C)Cn1cnc2c(N)ncnc21)OCCC(=O)OC(C)C (stereo partly drawn) [Compound 15B, reference compound] | – | – | IC50 (HIV-1 (H9/IIIB strain); [4]): 340 nM |
| CCCOC(=O)C(C)(C)NP(=O)(CO[C@H](C)Cn1cnc2c(N)ncnc21)OCC[C@H](C)C(=O)OC(C)C (single isomer, unassigned) [Example 6A] | 5.54 nM | 15.5 nM | – |
| CCCOC(=O)[C@H](C)NP(=O)(CO[C@H](C)Cn1cnc2c(N)ncnc21)OCC[C@H](C)C(=O)OC(C)C (stereo partly drawn) [Compound 16B, reference compound] | – | – | IC50 (HIV-1 (H9/IIIB strain); [4]): 730 nM |
| CCCOC(=O)C(C)(C)NP(=O)(CO[C@H](C)Cn1cnc2c(N)ncnc21)OCc1cccc(C(=O)OC(C)C)c1 (single isomer, unassigned) [Example 14A] | 1.71 nM | 7.58 nM | GI Tract stability [1, 7]: 96.71% |
| CC(C)OC(=O)[C@@H](C)CCOP(=O)(CO[C@H](C)Cn1cnc2c(N)ncnc21)NC(C)(C)C(=O)OC(C)C (single isomer, unassigned) [Example 5A] | 7.52 nM | 33.6 nM | – |
| CCCOC(=O)C(C)(C)N[P@@](=O)(CO[C@H](C)Cn1cnc2c(N)ncnc21)OCc1ccc(F)cc1C(=O)OC(C)C (single isomer, unassigned) [Example 7A] | – | – | IC50 (HIV-1 (H9/IIIB strain); Human immunodeficiency virus 1, IIIB, Table 1, MT4-GFP cells infected with HIV-1 H9/IIIB, 10% normal human serum, read-out: Viking, IC50 (10% NHS)): 107 nM; IC50 (HIV-1 (H9/IIIB strain); Human immunodeficiency virus 1, IIIB, Table 1, MT4-GFP cells infected with HIV-1 H9/IIIB, 50% normal human serum, read-out: Viking, IC50 (50% NHS)): 654 nM |
| CCCSC(=O)C(C)(C)NP(=O)(CO[C@H](C)Cn1cnc2c(N)ncnc21)OCCC(=O)OC(C)C (single isomer, unassigned) [Example 13B] | 99.6 nM | 248 nM | – |
| CC(C)OC(=O)C[C@H](C)OP(=O)(CO[C@H](C)Cn1cnc2c(N)ncnc21)NC(C)(C)C(=O)OC(C)C (single isomer, unassigned) [Example 10A] | 11.4 nM | 71.7 nM | GI Tract stability [1, 7]: 99.75% |
| CCCOC(=O)C(C)(C)NP(=O)(CO[C@H](C)Cn1cnc2c(N)ncnc21)OCC[C@H](C)C(=O)OC(C)C (single isomer, unassigned) [Example 6B] | 73.1 nM | 246 nM | – |
| CCCOC(=O)C(C)(C)NP(=O)(CO[C@H](C)Cn1cnc2c(N)ncnc21)OCCC(=O)OC(C)C (single isomer, unassigned) [Example 1A] | 23.2 nM | 102 nM | – |
| CCCOC(=O)C(C)(C)NP(=O)(CO[C@H](C)Cn1cnc2c(N)ncnc21)OCCc1cccc(C(=O)OC(C)C)c1 (single isomer, unassigned) [Example 11B] | 45.8 nM | 302 nM | – |
| CC(C)OC(=O)C1(COP(=O)(CO[C@H](C)Cn2cnc3c(N)ncnc32)NC(C)(C)C(=O)OC(C)C)CC1 (single isomer, unassigned) [Example 3B] | 16.8 nM | 70.9 nM | – |
| CCOC(=O)C1(CCOP(=O)(CO[C@H](C)Cn2cnc3c(N)ncnc32)NC(C)(C)C(=O)OC(C)C)CC1 (single isomer, unassigned) [Example 4B] | 7.84 nM | 22.7 nM | GI Tract stability [1, 7]: 99.72% |
| CCCOC(=O)[C@H](C)NP(=O)(CO[C@H](C)Cn1cnc2c(N)ncnc21)OCC[C@H](C)C(=O)OC(C)C (single isomer, unassigned) [Compound 16A, reference compound] | – | – | IC50 (HIV-1 (H9/IIIB strain); [4]): 213 nM; IC50 (HIV-1 (H9/IIIB strain); [5]): 1830 nM; GI Tract stability [1, 6]: 51.3% |
| CCCOC(=O)C(C)(C)NP(=O)(CO[C@H](C)Cn1cnc2c(N)ncnc21)SCCC(=O)OC(C)C (single isomer, unassigned) [Example 12B] | – | – | IC50 (HIV-1 (H9/IIIB strain); read-out: Viking, IC50 (10% NHS), Table 1, MT4-GFP cells infected with HIV-1 H9/IIIB, 10% normal human serum): 13 nM; IC50 (HIV-1 (H9/IIIB strain); read-out: Viking, IC50 (50% NHS), Table 1, MT4-GFP cells infected with HIV-1 H9/IIIB, 50% normal human serum): 38.6 nM; GI Tract stability [1, 7]: 54.83% |
| CC(C)OC(=O)C1(COP(=O)(CO[C@H](C)Cn2cnc3c(N)ncnc32)NC(C)(C)C(=O)OC(C)C)CC1 (single isomer, unassigned) [Example 3A] | 88.7 nM | 521 nM | – |
| CCCSC(=O)C(C)(C)NP(=O)(CO[C@H](C)Cn1cnc2c(N)ncnc21)OCCC(=O)OC(C)C (single isomer, unassigned) [Example 13A] | 5.08 nM | 21.9 nM | GI Tract stability [1, 7]: 76.99% |
| CC(C)OC(=O)C[C@H](C)OP(=O)(CO[C@H](C)Cn1cnc2c(N)ncnc21)NC(C)(C)C(=O)OC(C)C (single isomer, unassigned) [Example 10B] | 284 nM | 1070 nM | – |
| CCCOC(=O)C(C)(C)NP(=O)(CO[C@H](C)Cn1cnc2c(N)ncnc21)OCCc1cccc(C(=O)OC(C)C)c1 (single isomer, unassigned) [Example 11A] | 2.18 nM | 6.39 nM | GI Tract stability [1, 7]: 88.58% |
| CCCCCOC(=O)C(C)(C)NP(=O)(CO[C@H](C)Cn1cnc2c(N)ncnc21)OCCC(=O)OC(C)C (single isomer, unassigned) [Example 8A] | 0.92 nM | 11.3 nM | GI Tract stability [1, 7]: 92.12% |
| CCCOC(=O)[C@H](C)NP(=O)(CO[C@H](C)Cn1cnc2c(N)ncnc21)OCc1ccc(F)cc1C(=O)OC(C)C (stereo partly drawn) [Compound 17B, reference compound] | – | – | IC50 (HIV-1 (H9/IIIB strain); [4]): 570 nM |
| CCCOC(=O)C(C)(C)NP(=O)(CO[C@H](C)Cn1cnc2c(N)ncnc21)OCc1cccc(C(=O)OC(C)C)c1 (single isomer, unassigned) [Example 14B] | 16.7 nM | 114 nM | – |
| CC(C)OC(=O)[C@@H](C)CCOP(=O)(CO[C@H](C)Cn1cnc2c(N)ncnc21)NC(C)(C)C(=O)OC(C)C (single isomer, unassigned) [Example 5B] | 540 nM | 2220 nM | – |
| CC(C)OC(=O)CCOP(=O)(CO[C@H](C)Cn1cnc2c(N)ncnc21)NC(C)(C)C(=O)OC(C)C (single isomer, unassigned) [Example 2B] | 601 nM | 622 nM | – |
| CCOC(=O)C1(CCOP(=O)(CO[C@H](C)Cn2cnc3c(N)ncnc32)NC(C)(C)C(=O)OC(C)C)CC1 (single isomer, unassigned) [Example 4A] | 252 nM | 756 nM | – |
